The values below are quoted from earlier work in US20080008727A1, “Compositions comprising adapalene dissolved with cyclodextrins” (GALDERMA RESEARCH & DEVELOPMENT, priority 2004, published 2008).

Consider `COc1ccc(-c2ccc3cc(C(=O)O)ccc3c2)cc1C12CC3CC(CC(C3)C1)C2` [adapalene, 6-[3-(1-adamantyl)-4-methoxyphenyl]-2-naphthoic acid], for which the “Solubility in water (in words)” value was “practically insoluble in water”.
